Assay results from US10556926B2, “Synthetic artificial peptides with antimicrobial effect” (priority 2014, dated 2020).
Like-named read-outs stand apart in the source and are kept apart here. No end group written: not given here.

Legend:
Staphylococcus xylosus = test system: Staphylococcus xylosus
Description: (§1) The minimum inhibitory concentration (MIC) of the peptides was carried out by way of example against gram(−) E. coli DH5α (and gram(+) Staphylococcus xylosus (both Deutsche Sammlung von Mikroorganismen and Zellkulturen, DSMZ) in a standardized microdilution method according to the general guidelines of the CLSI (Clinical and Laboratory Standards Institute 2006) and EUCAST (European Committee for Antimicrobial Susceptibility Testing of the European Society of Clinical Microbiology and Infectious Diseases 2003) with slight adaptations to the investigation of cationic antimicrobial peptides (Wiegand et al. 2008). The bacteria cells were cultivated in Mueller-Hinton-Boullion (MHB) to an optical density of 0.4 to 0.6 at 600 nm wavelength, corresponding to about 4·10^8 bacteria per ml. Then, the bacteria cultures were diluted to a bacteria concentration of about 1·10^5 bacteria per ml in sterile MHB. Using the peptides, series of 2-fold dilutions starting at 128 μM to the smallest dilution of 0.5 μM in MHB were prepared. The peptide dilutions were mixed with the dilute bacteria cultures in a […] in the chambers of a 96-well polypropylene microtiter plate (Starlab, Hamburg, Germany), so that the peptides were present in an end concentration between 64 μM and 0.25 μM at a bacteria concentration of 5·10^4 bacteria/ml. Sterile MHB served as negative control, and the positive control used as the corresponding bacteria concentration in MHB without the addition of peptide. The microtiter plates were incubated for 18 hours at 37° C. with shaking at 120 rpm in a climatically controlled chamber. After the incubation, the bacteria concentration was determined by renewed absorption measurement at a wavelength of 600 nm.

E. coli DH5α = test system: E. coli DH5α
Description: as §1

[1] = test system: human histiocytic lymphoma cell line U937; assay: Cytotoxicity, direct membrane damage (CytoTox 96), LD50; assay type: cell-based; conditions: U937, two hours at 37° C., 0.25-64 μM
Description: The direct membrane damage was investigated with the help of the CytoTox 96 Non-Radioactive Cytotoxicity Assay (Promega, Mannheim, Germany). For this purpose, the cells were sedimented at 100 g for ten minutes at 4° C., and 50 μl of the resulting culture supernatant were added to 50 μl of the CytoTox substrate mix. After an incubation time of 30 minutes in the dark at room temperature, 50 μl of the CytoTox stopping solution were added to the sample and the absorption was measured at 490 nm. To determine the LD50 value, the measurement value of the negative control was deducted from the absorption values and divided by the measurement value of the permeabilization control. The calculated values were plotted graphically against the peptide concentration and fitted using the Origin pro 8.1 G Software according to a sigmoidal model and the LD50 values were ascertained from this. The calculation was carried out analogously to example 5 by reference to the solution of equation 5.1 for the case y=50, where y in this case corresponds to the relative cytotoxicity in percent and x corresponds to the peptide concentration in μM. Representative graphical evaluations of LD50 values are shown in FIG. 6 by reference to the measurement results for the reference peptides BMAP-27, protamine and KL-helix, and also the peptide O1 according to the invention.

[2] = test system: human histiocytic lymphoma cell line U937; assay: Long-term growth inhibition, minimum toxic concentration (MTC)
Description: The cytotoxic potential of the antimicrobial peptides was determined by way of example by reference to the human histiocytic lymphoma cell line U937 (DSMZ). The influence of the peptides on the permeability of the cell membrane and their longer-term growth-inhibiting effect was investigated. 15 ml of RPMI 1640 medium with 2 mM glutamine and 10% FCS (Biochrom, Berlin, Germany) were inoculated with 1·10^5 cells per ml and cultivated for three days at 37° in T75 cell culture bottles (TPP, Trasadingen, Switzerland) with constant gassing with 5% CO2 in a climatically controlled chamber. The medium was admixed with 10 U/ml penicillin and […] streptomycin (both AppliChem, Darmstadt, Germany) to avoid bacterial contaminations, with no further antibiotics being added during the subsequent recultivation. Before each experiment, the cells were washed by centrifugation at 100 g for five minutes and subsequent resuspension in RPMI 1640 medium with 2 mM glutamine and 10% FCS in each case two times and adjusted to a concentration of 1·10^5 cells per ml. Finally, in each case 100 μl of the U937 cells were transferred to the reaction chambers of a sterile 96-well polypropylene microtiter plate and admixed with in each case 100 μl of a prediluted antimicrobial peptide in RPMI 1640 medium without antibiotic addition, such that end concentrations of in each case 5·10^4 cells per ml at peptide concentrations between 0.25 μM and 64 μM were present. The negative control used was samples without antimicrobial peptide, while Triton X-100 (AppliChem) was used in an end concentration of 5% as positive control for the permeabilization. The samples were cultivated for two hours at 37° C. and with continuous gassing with 5% CO2 in a climatically controlled chamber. Then, in each case 100 μl of each sample were removed and transferred to new sterile microtiter plates for determining the direct membrane damage. The remaining 100 μl of the samples were cultivated for at least four further days.
For this purpose, 10 μl of lysing solution were added to in each case 100 μl of cell suspension and incubated for 60 minutes at 37° C. Then, the cell culture supernatants were investigated as described above. The lowest peptide concentration at which complete suppression of the cell growth was established after four days was stipulated as the minimum toxic concentration (MTC).

[3] = MHB, 18 hours at 37° C., mean of four test series

KKKLLLLLKKK [S4]
MIC S. xylosus (Staphylococcus xylosus; 18 h): 8 µM
MIC E. coli (E. coli DH5α; DH5α, 18 h): 16 µM
Toxicity LD50 [1]: >64 µM

KRKLILKRILIKRK [A2]
MIC S. xylosus (Staphylococcus xylosus; 18 h): 8 µM
MIC E. coli (E. coli DH5α; DH5α, 18 h): 16 µM
Toxicity MTC (minimum toxic concentration) [2]: >64 µM
Toxicity LD50 [1]: >64 µM

KRKILIL [C6, KRKILIL]
MIC S. xylosus (Staphylococcus xylosus; 18 h): >64 µM
MIC E. coli (E. coli DH5α; DH5α, 18 h): >64 µM
Toxicity MTC (minimum toxic concentration) [2]: >64 µM
Toxicity LD50 [1]: >64 µM

ILILIKRK [N5]
MIC S. xylosus (Staphylococcus xylosus; 18 h): 64 µM
MIC E. coli (E. coli DH5α; DH5α, 18 h): 64 µM
Toxicity MTC (minimum toxic concentration) [2]: >64 µM
Toxicity LD50 [1]: >64 µM

RKLILKRKRILIKR [A3]
MIC S. xylosus (Staphylococcus xylosus; 18 h): 8 µM
MIC E. coli (E. coli DH5α; DH5α, 18 h): 16 µM
Toxicity MTC (minimum toxic concentration) [2]: >64 µM
Toxicity LD50 [1]: >64 µM

KRKILILIGSG [M4]
MIC S. xylosus (Staphylococcus xylosus; 18 h): >64 µM
MIC E. coli (E. coli DH5α; DH5α, 18 h): >64 µM
Toxicity MTC (minimum toxic concentration) [2]: >64 µM
Toxicity LD50 [1]: >64 µM

KKKIIIIIIKKK-NH2 [O1′]
MIC S. xylosus (Staphylococcus xylosus; [3]): 0.25 µM
MIC E. coli (E. coli DH5α; [3]): 4 µM

KKKKKIIIIIDDDKK [D7]
MIC S. xylosus (Staphylococcus xylosus; 18 h): >64 µM
MIC E. coli (E. coli DH5α; DH5α, 18 h): >64 µM
Toxicity MTC (minimum toxic concentration) [2]: >64 µM
Toxicity LD50 [1]: >64 µM

KRKGSGKRK [H8]
MIC S. xylosus (Staphylococcus xylosus; 18 h): >64 µM
MIC E. coli (E. coli DH5α; DH5α, 18 h): >64 µM
Toxicity MTC (minimum toxic concentration) [2]: >64 µM
Toxicity LD50 [1]: >64 µM

KRKILILIKRKRK [C1]
MIC S. xylosus (Staphylococcus xylosus; 18 h): 1 µM
MIC E. coli (E. coli DH5α; DH5α, 18 h): 16 µM
Toxicity MTC (minimum toxic concentration) [2]: >64 µM
Toxicity LD50 [1]: 61 µM

KRKILILIKRKR [C2]
MIC S. xylosus (Staphylococcus xylosus; 18 h): 2 µM
MIC E. coli (E. coli DH5α; DH5α, 18 h): 16 µM
Toxicity MTC (minimum toxic concentration) [2]: >64 µM
Toxicity LD50 [1]: >64 µM

RKRKILILIKRK [N2]
MIC S. xylosus (Staphylococcus xylosus; 18 h): 2 µM
MIC E. coli (E. coli DH5α; DH5α, 18 h): 8 µM
Toxicity MTC (minimum toxic concentration) [2]: >64 µM
Toxicity LD50 [1]: >64 µM

LILKRKRKRKRILI [A5]
MIC S. xylosus (Staphylococcus xylosus; 18 h): >64 µM
MIC E. coli (E. coli DH5α; DH5α, 18 h): >64 µM
Toxicity MTC (minimum toxic concentration) [2]: >64 µM
Toxicity LD50 [1]: >64 µM

KRKILIKRK [H3]
MIC S. xylosus (Staphylococcus xylosus; 18 h): 64 µM
MIC E. coli (E. coli DH5α; DH5α, 18 h): >64 µM
Toxicity MTC (minimum toxic concentration) [2]: >64 µM
Toxicity LD50 [1]: >64 µM

KRKLIKRK [H4]
MIC S. xylosus (Staphylococcus xylosus; 18 h): >64 µM
MIC E. coli (E. coli DH5α; DH5α, 18 h): >64 µM
Toxicity MTC (minimum toxic concentration) [2]: >64 µM
Toxicity LD50 [1]: >64 µM

KRKGKRK [H7, KRKGKRK]
MIC S. xylosus (Staphylococcus xylosus; 18 h): 64 µM
MIC E. coli (E. coli DH5α; DH5α, 18 h): >64 µM
Toxicity MTC (minimum toxic concentration) [2]: >64 µM
Toxicity LD50 [1]: >64 µM

KRKIKRK [H5, KRKIKRK]
MIC S. xylosus (Staphylococcus xylosus; 18 h): >64 µM
MIC E. coli (E. coli DH5α; DH5α, 18 h): >64 µM
Toxicity MTC (minimum toxic concentration) [2]: >64 µM
Toxicity LD50 [1]: >64 µM

ILILILILKRK [M3]
MIC S. xylosus (Staphylococcus xylosus; 18 h): >64 µM
MIC E. coli (E. coli DH5α; DH5α, 18 h): >64 µM
Toxicity MTC (minimum toxic concentration) [2]: >64 µM
Toxicity LD50 [1]: >64 µM

KRKILILILIKRK [H1]
MIC S. xylosus (Staphylococcus xylosus; 18 h): 1 µM
MIC E. coli (E. coli DH5α; DH5α, 18 h): 8 µM
Toxicity MTC (minimum toxic concentration) [2]: >64 µM
Toxicity LD50 [1]: >64 µM

RRRFFFFFRRR [S7]
MIC S. xylosus (Staphylococcus xylosus; 18 h): 0.5 µM
MIC E. coli (E. coli DH5α; DH5α, 18 h): 4 µM
Toxicity LD50 [1]: >64 µM
